Measurements as given in patent publication US20140343095A1, “Methods of Diagnosing and Treating Multiple Sclerosis” (The Brigham and Women's Hospital, Inc., priority 2009, published 2014).

Target: PARP-1 (Homo sapiens, UniProt P09874)
Experiment: FACS-based detection of PARP-1 activity (PAR staining) in human monocytes / PBMCs
Type: cell-based
Parameters: endogenous in cells; host or cells: human PBMCs / monocytes / dendritic cells / T and B cells from healthy controls and MS patients
Description: FIGS. 11A-B are show the results of FACS-based detection of PARP-1 activity. 11A. a set of five histograms showing PAR staining (as detected by FACS) of PBMCs incubated with 15-HC alone, or in combination with AIQ, blocking antibodies to TLR2 (TLR2 BL), or IC control (TLR2 IC). 11B, a line graph showing the correlation of PAR staining as detected by FACS with PARP-1 enzymatic activity detected on PBMCs activated with different concentration of 15-HC.
14A is a set of fifteen histograms showing PAR staining of PBMCs taken from HC (left column), RRMS (center column) or SPMS (right column) patients and unstimulated (top row) or activated with 15-HC alone (second row), or in combination with AIQ (third row), blocking antibodies to TLR2 (fourth row) or IC control (bottom row). 14B is a bar graph showing the mean fluorescence intensity (MFI)±SD of 5 samples/group from the histograms in 14A.
15A is a set of 24 histograms showing PAR staining of PBMCs taken from HC (left column), RRMS (center column) or SPMS (right column) patients and unstimulated (top row) or activated with pgLPS (second row), polyIC (third row), ecLPS (fourth row), flagellin (row 5), imiquimod (row 6), ssRNA (row 7) or CpG (row 8). 15B is a bar graph showing the mean fluorescence intensity (MFI)±SD of 5 samples/group from the histograms in […].
A new FACS-based method was developed to detect PARP-1 activation based on the intracellular detection of the PARP-1 product PAR with specific antibodies. Briefly, the cells were incubated with antibodies to CD16/32 to block unspecific antibody binding, and then stained for surface markers. After washing, the cells were permeabilized with Fix/Perm (BD), and then stained with rabbit anti-PAR antibodies (or control rabbit IgG) for 30′ at 4° C., followed by anti-rabbit PE for 30′ at room temperature. The samples were then analyzed by FACS.

PARP-1, sequence (P09874 whole entry): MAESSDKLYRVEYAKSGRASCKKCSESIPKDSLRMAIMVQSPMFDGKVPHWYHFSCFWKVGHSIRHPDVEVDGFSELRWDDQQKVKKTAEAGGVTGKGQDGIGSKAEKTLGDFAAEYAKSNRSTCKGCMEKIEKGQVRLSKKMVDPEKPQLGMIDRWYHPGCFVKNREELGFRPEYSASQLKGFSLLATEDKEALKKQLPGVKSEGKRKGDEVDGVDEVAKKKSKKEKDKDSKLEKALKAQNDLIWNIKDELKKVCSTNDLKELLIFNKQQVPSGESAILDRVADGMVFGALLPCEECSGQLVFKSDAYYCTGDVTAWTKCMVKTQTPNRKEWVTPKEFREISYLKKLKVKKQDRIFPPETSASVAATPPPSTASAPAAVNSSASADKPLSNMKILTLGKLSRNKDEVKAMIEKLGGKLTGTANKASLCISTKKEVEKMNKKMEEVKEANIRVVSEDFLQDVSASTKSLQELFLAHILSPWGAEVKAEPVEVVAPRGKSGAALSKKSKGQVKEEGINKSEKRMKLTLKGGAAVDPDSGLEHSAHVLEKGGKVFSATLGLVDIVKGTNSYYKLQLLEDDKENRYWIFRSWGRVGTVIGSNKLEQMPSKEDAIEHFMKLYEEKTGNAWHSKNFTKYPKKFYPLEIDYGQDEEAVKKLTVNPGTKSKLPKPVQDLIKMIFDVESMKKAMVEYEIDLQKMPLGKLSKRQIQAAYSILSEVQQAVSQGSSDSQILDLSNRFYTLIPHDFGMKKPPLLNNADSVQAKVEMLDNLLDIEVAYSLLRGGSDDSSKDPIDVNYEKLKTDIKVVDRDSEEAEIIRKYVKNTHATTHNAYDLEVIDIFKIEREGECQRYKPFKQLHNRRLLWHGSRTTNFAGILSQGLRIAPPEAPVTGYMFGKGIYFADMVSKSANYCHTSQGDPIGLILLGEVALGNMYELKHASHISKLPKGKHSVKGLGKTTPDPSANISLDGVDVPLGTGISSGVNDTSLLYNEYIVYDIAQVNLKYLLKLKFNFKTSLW

15-hydroxycholestene [15-HC] was tested. Which “inhibition of 15-HC-induced PARP-1 activation in monocytes from healthy controls, RRMS and SPMS patients” value (all three experimental groups) did it give?
The value was “could be inhibited”.

And the “PAR staining (FACS)” value (human monocytes activated by 15-HC)?
Its value is “significant increase”.
